This note sets out measurements from patent US4735959A, “Carboxylic acid amides and pharmaceutical compositions containing them” (Dr. Karl Thomae GmbH, priority 1981, dated 1988).

Molecules are shown by their SMILES. Where two headings read alike, the source gives them in different places.

This experiment relates to blood-sugar. In words: Blood-sugar lowering activity in starved female rats after oral administration. The experiment is classed as in vivo. The following applies: for Blood-sugar lowering activity, percent as compared with the controls / change in vivo at 1 mg/kg / change in vivo at 5 mg/kg: n.s. = not statistically significant; for change in vivo at 1 mg/kg / change in vivo at 5 mg/kg / change in vivo at 10 mg/kg: Rattus norvegicus, po, read-out: Blood-sugar lowering activity, percent as compared with the controls. As to the method: The blood-sugar lowering activity of the test compounds was determined in home-bred female rats with weights of from 180 to 220 grams. Twenty-four hours before starting the test the animals were starved. Before the test the compounds were suspended in 1.5% methyl cellulose and administered to the animals by means of an esophageal tube.
Blood was taken from the retroorbital plexus vein before administration of the test compounds as well as each of 1, 2, 3, and 4 hours after administration. Fifty microliters of each sample were deproteinized with 0.5 ml of 0.33N perchloric acid and centrifuged. The glucose content was determined in the supernatant according to the Hexokinase method by means of an analysis photometer. The statistical evalulation was performed with the t-test according to Student with p=0.05.

For the molecule `CC1CCCN(c2ccccc2C(NC(=O)Cc2ccc(C(=O)O)cc2)c2ccccc2)C1` (stereo not drawn) [AR, 4-[(2-(3-Methyl-piperidino)-α-phenyl-benzyl)-aminocarbonylmethyl]-benzoic acid], the “Blood-sugar lowering activity, percent as compared with the controls” value (shortened to “Blood-sugar lowering activity, percent”) reads like this: (1 mg/kg orally, 3 hours) “n.s”; (1 mg/kg orally, 4 hours) “n.s”. The change in vivo at 1 mg/kg by setting is: (1 mg/kg orally, 1 hour) -13%; (1 mg/kg orally, 2 hours) -9%. Further, the change in vivo at 5 mg/kg by setting is: (5 mg/kg orally, 1 hour) -35%; (5 mg/kg orally, 2 hours) -30%; (5 mg/kg orally, 3 hours) -29%; (5 mg/kg orally, 4 hours) -31%.

For `O=C(Cc1ccc(C(=O)O)cc1)NC(c1ccccc1)c1cccc(Cl)c1N1CCCCC1` (stereo not drawn) [AS, 4-[(3-Chloro-α-phenyl-2-piperidino-benzyl)-aminocarbonylmethyl]-benzoic acid], the “Blood-sugar lowering activity, percent” value (1 mg/kg orally, 3 hours) is listed as “n.s” and the “Blood-sugar lowering activity, percent” value (1 mg/kg orally, 4 hours) was “n.s”. Further, the change in vivo at 1 mg/kg runs as follows: (1 mg/kg orally, 1 hour) -21%; (1 mg/kg orally, 2 hours) -13%. The change in vivo at 5 mg/kg (5 mg/kg orally, 1 hour) was -45%; the change in vivo at 5 mg/kg (5 mg/kg orally, 2 hours) is -44%; the change in vivo at 5 mg/kg (5 mg/kg orally, 3 hours) is -42%; the change in vivo at 5 mg/kg (5 mg/kg orally, 4 hours) was -32%.

Consider `CC/C=C(\NC(=O)Cc1ccc(C(=O)OCC)cc1)c1ccccc1N1CCCCC1` [B, (Z)-4-[(1-(2-Piperidino-phenyl)-1-buten-1-yl)-aminocarbonylmethyl]-benzoic acid ethyl ester], for which the change in vivo at 1 mg/kg reads like this: (1 mg/kg orally, 1 hour) -39%; (1 mg/kg orally, 2 hours) -19%; (1 mg/kg orally, 3 hours) -26%; (1 mg/kg orally, 4 hours) -30%. Further, the change in vivo at 5 mg/kg is -44% (5 mg/kg orally, 1 hour); -39% (5 mg/kg orally, 2 hours); -26% (5 mg/kg orally, 3 hours); -35% (5 mg/kg orally, 4 hours).

As to `COCC(NC(=O)Cc1ccc(C(=O)O)cc1)c1ccccc1N1CCCCC1` (centres unmarked) [Compound P, 4-[(2-Methoxy-1-(2-piperidino-phenyl)-1-ethyl)-aminocarbonylmethyl]-benzoic acid], the “Blood-sugar lowering activity, percent” value reads like this: (1 mg/kg orally, 3 hours) “n.s”; (1 mg/kg orally, 4 hours) “n.s”. Further, the change in vivo at 1 mg/kg (1 mg/kg orally, 1 hour) was -37% and the change in vivo at 1 mg/kg (1 mg/kg orally, 2 hours) was -19%. Besides, the change in vivo at 5 mg/kg runs as follows: (5 mg/kg orally, 1 hour) -49%; (5 mg/kg orally, 2 hours) -43%; (5 mg/kg orally, 3 hours) -34%; (5 mg/kg orally, 4 hours) -22%.

Regarding `CCCC/C=C(\NC(=O)Cc1ccc(C(=O)OCC)cc1)c1ccccc1N1CCCCC1` [E, (Z)-4-[(1-(2-Piperidino-phenyl)-1-hexen-1-yl)-aminocarbonylmethyl]-benzoic acid ethyl ester], the change in vivo at 1 mg/kg runs as follows: (1 mg/kg orally, 1 hour) -23%; (1 mg/kg orally, 2 hours) -23%; (1 mg/kg orally, 3 hours) -12%; (1 mg/kg orally, 4 hours) -18%. The change in vivo at 5 mg/kg is, setting by setting: (5 mg/kg orally, 1 hour) -46%; (5 mg/kg orally, 2 hours) -40%; (5 mg/kg orally, 3 hours) -38%; (5 mg/kg orally, 4 hours) -26%.

On to `O=C(Cc1ccc(C(=O)O)cc1)N/C(=C\Cc1ccccc1)c1ccccc1N1CCCCC1` [F, (Z)-4-[(3-Phenyl-1-(2-piperidino-phenyl)-1-propen-1-yl)-aminocarbonylmethyl]-benzoic acid], for which the change in vivo at 5 mg/kg was -43% (5 mg/kg orally, 1 hour); -42% (5 mg/kg orally, 2 hours); -39% (5 mg/kg orally, 3 hours); -32% (5 mg/kg orally, 4 hours).

As to `CC/C=C(\NC(=O)Cc1ccc(C(=O)O)cc1)c1ccccc1N1CCCC(C)(C)C1` [G, (Z)-4-[(1-(2-(3,3-Dimethyl-piperidino)-phenyl)-1-buten-1-yl)-aminocarbonylmethyl]-benzoic acid], the change in vivo at 1 mg/kg reads like this: (1 mg/kg orally, 1 hour) -44%; (1 mg/kg orally, 2 hours) -42%; (1 mg/kg orally, 3 hours) -37%; (1 mg/kg orally, 4 hours) -31%.

Turning to `CCCC(NC(=O)Cc1ccc(C(=O)O)cc1)c1ccccc1N1CCCC1` (centres unmarked) [H, 4-[(1-(2-Pyrrolidino-phenyl)-1-butyl)-aminocarbonylmethyl]-benzoic acid], the change in vivo at 5 mg/kg reads like this: (5 mg/kg orally, 1 hour) -50%; (5 mg/kg orally, 2 hours) -46%; (5 mg/kg orally, 3 hours) -44%; (5 mg/kg orally, 4 hours) -45%.

For `CCCC(NC(=O)Cc1ccc(C(=O)O)cc1)c1ccccc1N1CCCCCC1` (centres unmarked) [M, 4-[(1-(2-Hexahydroazepino-phenyl)-1-butyl)-aminocarbonylmethyl]-benzoic acid], the “Blood-sugar lowering activity, percent” value (1 mg/kg orally, 4 hours) is “n.s”. Also, the change in vivo at 1 mg/kg by setting is: (1 mg/kg orally, 1 hour) -33%; (1 mg/kg orally, 2 hours) -30%; (1 mg/kg orally, 3 hours) -21%. Moreover, the change in vivo at 5 mg/kg reads like this: (5 mg/kg orally, 1 hour) -46%; (5 mg/kg orally, 2 hours) -43%; (5 mg/kg orally, 3 hours) -40%; (5 mg/kg orally, 4 hours) -36%.

As to `CCCCCC(NC(=O)Cc1ccc(C(=O)O)cc1)c1ccccc1N1CCCCC1` (centres unmarked) [N, 4-[(1-(2-Piperidino-phenyl)-1-hexyl)-aminocarbonylmethyl]-benzoic acid], the change in vivo at 5 mg/kg runs as follows: (5 mg/kg orally, 1 hour) -42%; (5 mg/kg orally, 2 hours) -42%; (5 mg/kg orally, 3 hours) -37%; (5 mg/kg orally, 4 hours) -33%.

For the molecule `O=C(Cc1ccc(C(=O)O)cc1)NC(CCc1ccccc1)c1ccccc1N1CCCCC1` (centres unmarked) [O, 4-[(3-Phenyl-1-(2-piperidino-phenyl)-1-propyl)-aminocarbonylmethyl]-benzoic acid], the “Blood-sugar lowering activity, percent” value is, setting by setting: (10 mg/kg orally (footnote *), 3 hours) “n.s”; (10 mg/kg orally (footnote *), 4 hours) “n.s”. Moreover, the change in vivo at 10 mg/kg was -38% (10 mg/kg orally (footnote *), 1 hour) and -31% (10 mg/kg orally (footnote *), 2 hours).

Consider `N#CC(NC(=O)Cc1ccc(C(=O)O)cc1)c1ccccc1N1CCCCC1` (stereo not drawn) [Q, 4-[(α-Cyano-2-piperidino-benzyl)-aminocarbonylmethyl]-benzoic acid], for which the “Blood-sugar lowering activity, percent” value by setting is: (5 mg/kg orally, 3 hours) “n.s”; (5 mg/kg orally, 4 hours) “n.s”. Also, the change in vivo at 5 mg/kg by setting is: (5 mg/kg orally, 1 hour) -28%; (5 mg/kg orally, 2 hours) -13%.

With `CCCC(NC(=O)Cc1ccc(CO)cc1)c1ccccc1N1CCCCC1` (centres unmarked) [R, 4-[(1-(2-Piperidino-phenyl)-1-butyl)-aminocarbonylmethyl]-benzyl alcohol], the change in vivo at 1 mg/kg (1 mg/kg orally, 1 hour) was -39%; the change in vivo at 1 mg/kg (1 mg/kg orally, 2 hours) is -34%; the change in vivo at 1 mg/kg (1 mg/kg orally, 3 hours) is -29%; the change in vivo at 1 mg/kg (1 mg/kg orally, 4 hours) is -24%. In addition, the change in vivo at 5 mg/kg was -38% (5 mg/kg orally, 1 hour); -40% (5 mg/kg orally, 2 hours); -35% (5 mg/kg orally, 3 hours); -29% (5 mg/kg orally, 4 hours).

With `CCCC(NC(=O)Cc1ccc(CC(=O)O)cc1)c1ccccc1N1CCCCC1` (centres unmarked) [S, 4-[(1-(2-Piperidino-phenyl)-1-butyl)-aminocarbonylmethyl]-phenyl-acetic acid], for the setting “1 mg/kg orally, 4 hours”, the “Blood-sugar lowering activity, percent” value is listed as “n.s”. For the same molecule, the change in vivo at 1 mg/kg (1 mg/kg orally, 1 hour) was -29%; the change in vivo at 1 mg/kg (1 mg/kg orally, 2 hours) is -20%; the change in vivo at 1 mg/kg (1 mg/kg orally, 3 hours) was -10%. For the same molecule, the change in vivo at 5 mg/kg reads like this: (5 mg/kg orally, 1 hour) -49%; (5 mg/kg orally, 2 hours) -42%; (5 mg/kg orally, 3 hours) -30%; (5 mg/kg orally, 4 hours) -17%.

Consider `CCCC(NC(=O)Cc1ccc(C=CC(=O)O)cc1)c1ccccc1N1CCCCC1` (centres unmarked) [T, 4=[(1-(2-Piperidino-phenyl)-1-butyl)-aminocarbonylmethyl]-cinnamic acid], for which the change in vivo at 1 mg/kg by setting is: (1 mg/kg orally, 1 hour) -42%; (1 mg/kg orally, 2 hours) -42%; (1 mg/kg orally, 3 hours) -40%; (1 mg/kg orally, 4 hours) -32%. Also, the change in vivo at 5 mg/kg by setting is: (5 mg/kg orally, 1 hour) -48%; (5 mg/kg orally, 2 hours) -46%; (5 mg/kg orally, 3 hours) -42%; (5 mg/kg orally, 4 hours) -40%.

With `CCCC(NC(=O)Cc1ccc(C(=O)OCC(O)CO)cc1)c1ccccc1N1CCCCC1` (centres unmarked) [U, 4-[(1-(2-Piperidino-phenyl)-1-butyl)-aminocarbonylmethyl]-benzoic acid 2,3-dihydroxy-propyl ester], the change in vivo at 1 mg/kg was -39% (1 mg/kg orally, 1 hour); -35% (1 mg/kg orally, 2 hours); -29% (1 mg/kg orally, 3 hours); -24% (1 mg/kg orally, 4 hours). Also, the change in vivo at 5 mg/kg runs as follows: (5 mg/kg orally, 1 hour) -43%; (5 mg/kg orally, 2 hours) -43%; (5 mg/kg orally, 3 hours) -49%; (5 mg/kg orally, 4 hours) -45%.
